Values after ≈ are worked out from the molar mass of the structure shown. Like-named read-outs stand apart in the source and are kept apart here.

Data on nine compounds can be found in patent US20150299125A1, “PRODRUG BIPYRIDYLAMINOPYRIDINES AS SYK INHIBITORS” (MERCK SHARP & DOHME CORP., priority 2012, published 2015).

The nature of data set [1]: Solubility in biorelevant fasted state simulated intestinal fluid (FaSSIF). The settings on record: 25 °C, fassif, kinetic from dmso stock. Format: physicochemical. In outline: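 Compound from 10 mM DMSO stock diluted into FaSSIF (maximum solubility approximately 200 μM), equilibrated, then filtered by centrifugation through a 0.45 μm polypropylene membrane. Filtrate and a 100 μM standard analysed by HPLC/DAD; solubility = (sample peak area/standard peak area) × standard concentration.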

A short description of data set [2]: Blood stability assay. Format: in vitro ADME. Conditions: whole blood; human blood, 37° C. The method, then: The likely stability of prodrugs in the blood can be estimated by incubating a prodrug with blood. A prodrug stock solution was prepared at 10 mM in DMSO and working solutions (100 μM) containing the prodrug were prepared by diluting a suitable amount of the stock solution with acetonitrile/water (50/50). 5 μL of the working solution were added to 495 μL of pre-warmed blood (at 37° C.). After vortexing and mixing, 50 μL of the spiked blood sample were taken for the 0 time point and transferred to another vial containing 200 μL of quenching solution (labetalol, alprazolam and diclofenac in 100% acetonitrile) ensuring that the vial is lidded to prevent evaporation and kept on ice. While keeping the spiked blood sample at 37° C. at the following timepoints (0.25, 0.5, 1, 2 and 3 h) 5 additional aliquots (50 μL) were sampled and mixed with the quenching solution. At the end of the experiment the quenched samples were vortexed for 2 minutes and centrifuged for 10 minutes at 4000 rpm. The supernatant (100 μL) was then transferred and collected into a new 96-well plate and injected into the LC-MS/MS for analysis. For each test compound, the area ratios at each time point to the 0 hour area ratio were compared and converted to a percentage remaining. The percentage remaining were then plotted against time (h) and half life generated using the following equation t½=0.693/kel. Where kel is the elimination rate constant which is determined from the concentration versus time curve by linear regression at the terminal phase of the semi-logarithmic plot.

The target of data set [3] is T1, recombinant human GST-Syk (Homo sapiens, UniProt P43405).
T1 construct: purchased Carna Biosciences 08-176
Nature of the data set: Homogeneous Time-Resolved Fluorescence (HTRF) assay for the recombinant human Syk enzyme. Format: biochemical. The settings on record: recombinant human GST-Syk 5 pM, ATP 25 μM, read-out: IC50. In outline: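 HTRF read-out, taken 30 min after adding 2 nM europium anti-pTyr antibody plus 70 nM streptavidin-APC in 40 mM EDTA/Tris pH 7.5, detects peptide phosphorylated by GST-tagged human Syk during a 45-min room-temperature reaction.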

Data set [4] is described as follows: Conversion of prodrug to parent in intestine homogenate. The class given is in vitro ADME. The settings on record: prodrug 1 μM, intestine S9 1 mg protein/mL, 37° C., pH 7.4, 2 h. As for the experimental part:
Conversion of Prodrug to Parent in Intestine Homogenate:
(§1) The likely stability of prodrugs in the intestine can be estimated by incubating a prodrug with intestine homogenate. Incubations of prodrugs (1 μM) with intestine S9 (1 mg protein/mL) were carried out at 37° C. in a phosphate buffer, pH 7.4. Control incubations contained BSA (1.1 mg/mL) instead of intestine S9 microsomes. Aliquots were removed at 0, 5, 15, 30, 60 and 120 min, treated with 4 volumes of acetonitrile containing 2% formic acid and an internal standard, and centrifuged. The supernatants were analyzed by LC-MS/MS for prodrug disappearance and appearance of active drug. The half-life of the prodrug was calculated from the % prodrug remaining at different time points calculated from on the peak area ratio relative to t=0. The amount of active drug generated at the different time points was determined using a standard curve.

Data set [5] in a line: Conversion of prodrug to parent in liver homogenate. The settings on record: prodrug 1 μM, liver S9 1 mg protein/mL, 37° C., pH 7.4, 2 h. The class given is in vitro ADME. The method, then:
Conversion of Prodrug to Parent in Liver Homogenate:
as §1, with “liver” for “intestine”

Data set [6] in a line: Conversion of prodrug to parent in in vitro biorelevant gastrointestinal tract media. The class given is in vitro ADME. Conditions: 37° C.; for Conversion in SGF, time: simulated gastric fluid. As for the experimental part: Conversion of Prodrug to Parent in In Vitro Biorelevant Gastrointestinal Tract Media: The likely stability of prodrugs in the gastrointestinal tract can be estimated by incubating a prodrug in simulated gastric and intestinal fluids; compounds were measured for stability in simulated gastric fluid (SGF), fasted state simulated intestinal fluid (FaSSIF), and fasted state simulated intestinal fluid plus pancreatin (FaSSIF+pancreatin). Prodrug stock solutions were made by diluting 2 mg of compound in 200 μL DMSO. A 10 mg/mL Pancreatin in FaSSIF stock solution was made by dissolving 10 mg Pancreatin in 1 mL FaSSIF. Samples were prepared by diluting 10 μL of compound stock solution into 990 μL of biorelevant media (990 μL SGF, 990 μL FaSSIF, or 940 μL FaSSIF plus 50 μL Pancreatin stock) in a 2 mL HPLC vial and vortexing the mixture for a few seconds. The samples were incubated at 37° C. and aliquots were removed for up to 24 hours and injected directly on an HPLC to determine the conversion of prodrug to active drug. In the case of compound precipitation upon sample preparation, an individual sample was prepared for each desired time point and the entire sample was diluted with a known volume of acetonitrile/water (50/50) to ensure compound dissolution before HPLC analysis.

For data set [7] the following is noted: phase II clinical trial for allergic rhinitis; cited from earlier work.
For data set [8] the following is noted: dosed intranasally, phase I/II study, allergic rhinitis; cited from earlier work.

With `COCCOCCOCC(=O)OCOC(=O)[C@H]1CC[C@H]([C@@](C)(O)c2ccc(-c3cc(C)cc(Nc4cc(C(F)F)ccn4)n3)cn2)CC1` [Example 3-29, 3-oxo-2,5,8,11-tetraoxadodec-1-yl trans-4-[(1R)-1-(6-{[4-(difluoromethyl)pyridin-2-yl]amino}-4-methyl-2,3′-bipyridin-6′-yl)-1-hydroxyethyl]cyclohexane carboxylate], the concentration in solution in data set [1] (Solubility) (solubility) was 41 µM (≈ 27.6 µg/mL). For the same compound, the half-life (usually the time in which the quantity being followed falls by half) at 1 μM in data set [2] stood at 29 min. Further, the IC50 (commonly the concentration that gives 50% inhibition) in data set [3] is 1.2 nM.

For `Cc1cc(Nc2cc(C(F)F)ccn2)nc(-c2ccc([C@](C)(O)[C@H]3CC[C@H](C(=O)OCn4cc[n+](C)c4)CC3)nc2)c1` [Example 6-1, 1-{[({Trans-4-[(1R)-1-(6-{[4-(Difluoromethyl)pyridin-2-yl]amino}-4-methyl-2,3′-bipyridin-6′-yl)-1-hydroxyethyl]cyclohexyl}carbonyl)oxy]methyl}-3-methyl-1H-imidazol-3-ium], the solubility – broadly, the concentration that dissolves in the medium under given conditions – in data set [1] (Solubility) was 140 µM. The “Prodrug concentration at 2 h” value is 0.844 µM in data set [4] and 0.622 µM in data set [5]. The compound further showed a half-life at 1 μM in data set [2] of 24 min. Moreover, the IC50 in data set [3] amounted to 0.8 nM.

`COCCN(C)C(=O)OCOC(=O)[C@H]1CC[C@H]([C@@](C)(O)c2ccc(-c3cc(C)cc(Nc4cc(C(F)F)ccn4)n3)cn2)CC1` [Example 4-2, {[(2-methoxyethyl)(methyl)carbamoyl]oxy}methyl trans-4-[(1R)-1-(6-{[4-(difluoromethyl)pyridin-2-yl]amino}-4-methyl-2,3′-bipyridin-6′-yl)-1-hydroxyethyl]cyclohexanecarboxylate] yielded a half-life at 1 μM in data set [2] of 16 min. Further, the IC50 in data set [3] amounted to 9.1 nM.

As for `Cc1cc(Nc2cc(C(F)F)ccn2)nc(-c2ccc([C@](C)(O)[C@H]3CC[C@H](C(=O)OC[N+]4(C)CCOCC4)CC3)nc2)c1.[I-]` [Example 5-1, 4-{[({trans-4-[(1R)-1-(6-{[4-(Difluoromethyl)pyridin-2-yl]amino}-4-methyl-2,3′-bipyridin-6′-yl)-1-hydroxyethyl]cyclohexyl}carbonyl)oxy]methyl}-4-methylmorpholin-4-ium], the solubility in data set [1] (FaSSIF (fasted state simulated intestinal fluid), FaSSIF, equilibrated overnight at 25° C., maximum solubility approximately 200 μM, read-out: Solubility) was 200 µM. In addition, the “Prodrug concentration at 2 h” value in data set [4] was found to be 0.321 µM. For the same compound, the half-life at 1 μM in data set [2] was 15 min. Moreover, in data set [6] (3 h), the “Conversion in FaSSIF + Pancreatin, time” value is 45%, 3 h and the “Conversion in FaSSIF, time” value was 12%, 3 h. Further, the “Conversion in SGF, time” value in data set [6] (5 h) was 0%, 5 h. For the same compound, the IC50 in data set [3] worked out at 3.6 nM. Besides, in data set [5], the “Prodrug concentration at 2 h” value came out at 0.314 µM.

For `CCOCCOCCOC(=O)OCOC(=O)[C@H]1CC[C@H]([C@@](C)(O)c2ccc(-c3cc(C)cc(Nc4cc(C(F)F)ccn4)n3)cn2)CC1` [Example 2-2, 3-oxo-2,4,7,10-tetraoxadodec-1-yl trans-4-[(1R)-1-(6-{[4-(difluoromethyl)pyridin-2-yl]amino}-4-methyl-2,3′-bipyridin-6′-yl)-1-hydroxyethyl]cyclo hexanecarboxylate], the “Prodrug concentration at 2 h” value in data set [4] was found to be 0 µM. For the same compound, the half-life at 1 μM in data set [2] is 7 min. Besides, the “Conversion in FaSSIF + Pancreatin, time” value in data set [6] (3 h) is on record as 100%, 3 h. In addition, in data set [6] (5 h), the “Conversion in FaSSIF, time” value is 0%, 5 h and the “Conversion in SGF, time” value is listed as 0%, 5 h. Moreover, the IC50 in data set [3] is 174 nM. In data set [5], the “Prodrug concentration at 2 h” value stood at 0 µM.

Consider `Cc1cc(Nc2cc(C(F)F)ccn2)nc(-c2ccc([C@](C)(O)[C@H]3CC[C@H](C(=O)OCOC(=O)CC(C)(C)O)CC3)nc2)c1` [Example 3-4, [(3-hydroxy-3-methylbutanoyl)oxy] methyl trans-4-[(1R)-1-(6-{[4-(difluoromethyl)pyridin-2-yl]amino}-4-methyl-2,3′-bipyridin-6′-yl)-1-hydroxyethyl]cyclohexane carboxylate], for which the concentration in solution in data set [1] (Solubility) (solubility) came to 59 µM (≈ 36.1 µg/mL). Also, the half-life at 1 μM in data set [2] was determined as 14 min. In data set [3], the IC50 is 1.8 nM.

Compound `Cc1cc(Nc2cc(C(F)F)ccn2)nc(-c2ccc([C@](C)(O)[C@H]3CC[C@H](C(=O)OCCS(C)(=O)=O)CC3)nc2)c1` [Example 1-8, 2-(methylsulfonyl)ethyl trans-4-[(1R)-1-(6-{[4-(difluoromethyl)pyridin-2-yl]amino}-4-methyl-2,3′-bipyridin-6′-yl)-1-hydroxyethyl] cyclohexanecarboxylate] had a half-life at 1 μM in data set [2] of 22 min. Besides, the 50% inhibitory concentration (IC50) in data set [3] was determined as 4 nM.

Take `CCOCCOCCOC(=O)OC(C)OC(=O)[C@H]1CC[C@H]([C@@](C)(O)c2ccc(-c3cc(C)cc(Nc4cc(C(F)F)ccn4)n3)cn2)CC1` (stereo partly drawn) [Example 2-14, 1-methyl-3-oxo-2,4,7,10-tetraoxadodec-1-yl trans-4-[(1R)-1-(6-{[4-(difluoromethyl)pyridin-2-yl]amino}-4-methyl-2,3′-bipyridin-6′-yl)-1-hydroxyethyl]cyclo hexanecarboxylate]: the half-life at 1 μM in data set [2] amounted to 199 min. Besides, the concentration for half-maximal inhibition (IC50) in data set [3] amounted to 30.4 nM.

`Oc1cccc(Nc2ncc(F)c(Nc3cccc(O)c3)n2)c1` [Example R112]: the efficacy versus placebo result in data set [7] was “lack of efficacy versus placebo”. Besides, in data set [8], the PGD2 result is recorded as “statistically significant decrease” and the clinical safety entry is “safe across a range of indicators”.
